Format in all cases: functional
The target in experiment [1] is T1, Apoptotic protease-activating factor 1 (Homo sapiens, UniProt O14727).
T1 sequence (O14727 whole entry): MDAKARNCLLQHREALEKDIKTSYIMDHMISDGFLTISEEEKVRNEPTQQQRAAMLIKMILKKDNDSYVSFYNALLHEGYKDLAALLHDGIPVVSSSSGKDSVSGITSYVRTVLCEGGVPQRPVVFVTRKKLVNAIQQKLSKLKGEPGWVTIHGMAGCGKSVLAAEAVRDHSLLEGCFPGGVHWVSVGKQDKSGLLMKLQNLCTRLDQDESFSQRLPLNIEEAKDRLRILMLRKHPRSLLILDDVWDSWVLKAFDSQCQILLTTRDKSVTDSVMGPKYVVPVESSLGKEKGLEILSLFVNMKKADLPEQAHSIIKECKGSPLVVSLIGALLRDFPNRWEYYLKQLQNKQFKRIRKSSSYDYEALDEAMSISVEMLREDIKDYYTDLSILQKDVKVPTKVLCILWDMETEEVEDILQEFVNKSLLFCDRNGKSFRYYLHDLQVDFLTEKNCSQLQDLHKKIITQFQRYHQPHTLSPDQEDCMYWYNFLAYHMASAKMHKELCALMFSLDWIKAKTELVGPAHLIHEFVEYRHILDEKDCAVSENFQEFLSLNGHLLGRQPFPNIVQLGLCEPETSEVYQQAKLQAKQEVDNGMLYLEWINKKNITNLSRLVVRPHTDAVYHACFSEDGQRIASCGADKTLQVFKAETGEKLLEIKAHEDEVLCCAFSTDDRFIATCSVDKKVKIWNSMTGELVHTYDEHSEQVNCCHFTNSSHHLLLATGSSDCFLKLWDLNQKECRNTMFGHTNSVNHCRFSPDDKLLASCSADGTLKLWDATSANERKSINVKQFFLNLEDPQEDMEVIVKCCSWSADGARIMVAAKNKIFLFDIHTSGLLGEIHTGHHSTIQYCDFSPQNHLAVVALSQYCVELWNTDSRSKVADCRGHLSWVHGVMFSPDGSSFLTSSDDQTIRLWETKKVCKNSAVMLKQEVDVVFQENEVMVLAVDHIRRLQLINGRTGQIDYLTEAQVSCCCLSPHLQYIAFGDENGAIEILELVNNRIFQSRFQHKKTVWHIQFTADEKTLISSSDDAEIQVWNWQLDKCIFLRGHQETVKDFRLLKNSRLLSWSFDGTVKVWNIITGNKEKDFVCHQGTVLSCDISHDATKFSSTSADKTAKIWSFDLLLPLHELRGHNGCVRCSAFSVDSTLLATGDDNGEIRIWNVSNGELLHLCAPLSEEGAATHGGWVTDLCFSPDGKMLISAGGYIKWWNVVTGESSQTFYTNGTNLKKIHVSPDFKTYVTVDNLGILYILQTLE

Experiment [2] has as its target T2, Replicative DNA helicase DnaB (Mycobacterium tuberculosis, UniProt P9WMR3).
T2 sequence (P9WMR3 whole entry): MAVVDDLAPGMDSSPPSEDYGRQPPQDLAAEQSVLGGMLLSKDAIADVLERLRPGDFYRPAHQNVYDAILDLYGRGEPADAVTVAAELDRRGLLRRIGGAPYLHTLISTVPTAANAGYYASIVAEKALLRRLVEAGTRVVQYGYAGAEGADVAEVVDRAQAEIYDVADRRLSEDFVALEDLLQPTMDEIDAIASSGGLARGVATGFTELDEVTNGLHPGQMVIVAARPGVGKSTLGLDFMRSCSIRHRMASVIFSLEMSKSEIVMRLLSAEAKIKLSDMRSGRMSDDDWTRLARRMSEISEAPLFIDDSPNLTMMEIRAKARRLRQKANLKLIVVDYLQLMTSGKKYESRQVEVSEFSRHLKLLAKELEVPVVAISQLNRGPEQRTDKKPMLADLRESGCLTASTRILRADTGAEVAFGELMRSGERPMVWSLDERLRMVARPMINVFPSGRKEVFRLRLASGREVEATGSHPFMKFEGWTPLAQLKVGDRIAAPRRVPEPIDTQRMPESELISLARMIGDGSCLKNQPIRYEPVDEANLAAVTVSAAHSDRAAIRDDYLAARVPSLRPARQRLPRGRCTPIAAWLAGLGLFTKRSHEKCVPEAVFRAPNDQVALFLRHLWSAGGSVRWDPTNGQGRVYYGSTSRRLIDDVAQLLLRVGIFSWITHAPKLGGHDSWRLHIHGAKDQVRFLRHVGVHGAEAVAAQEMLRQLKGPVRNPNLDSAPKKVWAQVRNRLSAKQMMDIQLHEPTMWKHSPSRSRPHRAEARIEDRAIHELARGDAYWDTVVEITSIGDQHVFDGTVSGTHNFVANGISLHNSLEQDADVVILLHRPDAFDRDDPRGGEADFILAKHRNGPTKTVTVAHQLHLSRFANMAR
The experiment can be described thus: DnaB intein splicing inhibitors, dose response, biochemical, cell-free fluorescence (AID 449749).

The target in experiment [3] is T3, Protein RecA (Mycobacterium tuberculosis, UniProt P9WHJ3).
T3 sequence (P9WHJ3 whole entry): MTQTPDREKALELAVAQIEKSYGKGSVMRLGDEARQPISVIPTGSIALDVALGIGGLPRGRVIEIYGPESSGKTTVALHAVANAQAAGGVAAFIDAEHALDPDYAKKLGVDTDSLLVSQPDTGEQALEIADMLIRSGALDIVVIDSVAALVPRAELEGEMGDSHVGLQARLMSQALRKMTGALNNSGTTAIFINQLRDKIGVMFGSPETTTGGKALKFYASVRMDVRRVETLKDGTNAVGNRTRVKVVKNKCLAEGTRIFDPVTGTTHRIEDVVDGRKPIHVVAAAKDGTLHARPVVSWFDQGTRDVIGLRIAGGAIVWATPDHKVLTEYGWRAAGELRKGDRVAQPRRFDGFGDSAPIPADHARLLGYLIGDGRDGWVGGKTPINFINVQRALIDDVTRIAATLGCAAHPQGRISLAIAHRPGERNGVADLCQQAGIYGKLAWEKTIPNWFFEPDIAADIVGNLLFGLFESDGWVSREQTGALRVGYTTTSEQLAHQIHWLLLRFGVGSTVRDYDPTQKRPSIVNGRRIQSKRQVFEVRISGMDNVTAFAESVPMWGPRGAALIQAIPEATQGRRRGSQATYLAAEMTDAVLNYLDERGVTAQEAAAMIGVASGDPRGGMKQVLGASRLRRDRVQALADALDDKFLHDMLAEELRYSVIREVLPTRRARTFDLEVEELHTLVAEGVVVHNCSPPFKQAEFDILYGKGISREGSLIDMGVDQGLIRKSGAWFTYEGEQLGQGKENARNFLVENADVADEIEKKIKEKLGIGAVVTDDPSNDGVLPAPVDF
Description: Fluorescence Cell-Free Homogeneous Dose Retest to Identify Inhibitors of RecA-Intein Splicing Activity. [Related pubchem assays (depositor defined):AID2097, AID2223, AID489010, AID492950].

The structures appear in SMILES notation. Calls of active or inactive are those of the source.

For the compound `COc1cc(OC)c(NC2=CC(=O)C(=O)c3ccccc32)cc1Cl`, in experiment [1], the IC50 (usually the concentration that gives 50% inhibition) was 2120 nM (active).
For the compound `CCCCCCCCCCOC(=O)Cn1c(COc2cccc(OC)c2)[n+](C)c2ccccc21`, the IC50 in experiment [1] was 10200 nM (active). In addition, the half-maximal activity concentration (AC50) – broadly, the midpoint of the concentration-response curve, whichever way the signal moves – in experiment [2] is 4320 nM (active). The EC50 (as a rule, the concentration giving half of the maximal effect) in experiment [3] was 9700 nM (active).
For `CCc1ccc(S(=O)(=O)/N=C2\C=C(Nc3cccc(C(=O)O)c3)C(=O)c3ccccc32)cc1` the same measures were 7070 nM (active), 276 nM (active) and 216 nM (active).
Take `COc1cc2c(cc1OC)-c1c(OC)c(OC)cc3c1C(C2)N(C)CC3` (centres undefined): the AC50 in experiment [2] is 550 nM (active). In addition, the EC50 in experiment [3] is 614 nM (active).

The values are drawn from ChEMBL document CHEMBL1201862, “PubChem BioAssay data set” (2004).
